Columns and labels:
c-P4H tetramer = experiment: Non-denaturing Western blot of human lung fibroblast homogenates probed for c-P4H α-subunit; assay type: cell-based; details: RXD 10 mg/ml; alone, +EXO, +TGF-β
Protocol: FIG. 4. […] Western blotting on a gradient gel was performed on human lung fibroblast homogenates in non-denaturing conditions and probed with anti-α-subunit monomer (60 kD). Tetramer is found at 240 kD at arrow.

UUO kidney = experiment: Unilateral ureteral obstruction (UUO) model of renal fibrosis, Masson's trichrome collagen staining; assay type: in vivo, Mice C57BL/6J
Protocol: All animal treatments and experiments were approved by the Institutional Animal Care and Use Committee of Weill Cornell Medical College. Mice were anesthetized intraperitoneally with a cocktail of ketamine (90 mg/kg) and xylazine (4 mg/kg). Mice C57BL/6J) underwent right unilateral ureteral ligation with 4-0 silk suture through an abdominal midline incision under sterile conditions. Sham-operated control (CON) animals underwent identical operations, however, with manipulation of the right ureter only. Delivery of Roxadustat (10 mg/kg) on days 0, 2, 4, 6, 8, was administered IP. Mice were sacrificed on Day 14.
Kidneys were harvested and fixed in 10% neutral buffered formalin followed by embedding in paraffin. Sections (5 um) were collected and Masson's trichrome staining was performed using a kit (Richard-Allen Scientific) to detect collagen (blue stain). Slides of paraffinized tissue sections were deparaffinized, rehydrated, and washed in distilled water. Sections were subsequently stained using components from the trichrome kit and according to the manufacturer's protocol. After dehydrating and clearing in xylene, the sections were mounted with coverslips in Vectamount (Vector Laboratories). Tissue sections were examined with an inverted epifluorescence microscope (Nikon Eclipse TE 2000-U) interfaced to a SPOT Insight 2 megapixel color camera (Diagnostic Instruments).

human lung fibroblasts [1] = experiment: Collagen secretion by human lung fibroblasts (newly secreted collagen in supernatant, Sircol); assay type: cell-based; details: for collagen secretion: RXD, normalized for total protein
Protocol: (§1) Human lung fibroblasts were exposed to TGF-β (10 ng/ml) or co-cultured with EXO([…]), and supernatants were collected for measurement of newly secreted collagen. […] Cell lysates were used to quantify total protein/well for normalization. Data are means±SEM of three separate experiments (n=3), each point run in triplicate. *P<0.05, ***P<0.001, ***P<0.0001.
(§2) FIG. 19A-19E. […] C. […] Actin was run as the loading control. […] All assays were performed in triplicate.
(FIG. 3A). All values presented are normalized for total protein.

human lung fibroblasts [2] = experiment: Fibroblast migration/accumulation/foci formation in transwell plates; assay type: cell-based; details: qualitative; +TGF-β (10 ng/ml) +RXD (10 mg/ml)
human lung fibroblasts [3] = experiment: Fibroblast proliferation by total protein content of fibroblast cell lysates; assay type: cell-based; details: +RXD+TGF-β; control 0.800, +TGF-β 1.138
Protocol: as §1

[4] = test system: smooth muscle actin (SMA); experiment: Western blot of smooth muscle actin (SMA) in lung fibroblasts; assay type: cell-based, human; details: Western blotting
C-P4H = C-P4H abundance in stimulated human fibroblasts (immunofluorescence, Western blot); assay type: cell-based; details: for C-P4H immunofluorescence intensity: human fibroblasts exposed to TGF-β or mast cell exosomes
Protocol: FIG. 9. Roxadustat inhibits the increase in C-[…] in stimulated human fibroblasts. Immunoexpression of prolyl-4-hydroxylase […]). […] FIG. 19A-19E. […] C. […] Actin was run as the loading control. […] All assays were performed in triplicate.

HLF = experiment: Proline hydroxylation (LC-MC of extracted proteins) and hydroxyproline content in HLF; assay type: cell-based, human
Protocol: as §2

[5] = test system: bleomycin-induced pulmonary fibrosis; experiment: Bleomycin experimental mouse model of pulmonary fibrosis; assay type: in vivo, mice (C57BL/6J)
From the text: FIG. 11A-11B. In Vivo Murine Model of pulmonary fibrosis. […] Representative micrographs of Masson's trichrome-stained lungs from bleomycin-treated mice from the 14d time point. […] FIG. 12. […] Sal=Saline vehicle. FIG. 20A-20E. […] NS=not significant. N=5 mice/group. Scale bar=250 μm. […] Mice were sacrificed on day 21.

[6] = test system: mast cells (human mastocytoma cells); experiment: Mast cell degranulation after high oxygen and recovery in room air (β-hexosaminadase, tryptase release); assay type: cell-based; details: 72 h; 1 day high oxygen then 2 days room air (HO^rec) +RXD 10 mg/ml
Protocol: FIG. 5A-5C. […] C. […] NS=not significant
Mast cell degranulation was assessed by measuring the release of β-hexosaminadase (β-hex), a classic indicator of mast cell degranulation (FIG. 5A) and Tryptase (FIG. 5B). […] This protocol was designed to mimic the clinical protocol of giving IPF patients hospitalized with acute exacerbations high oxygen then followed by return to room air.

**Q.** What does the source list for `Cc1nc(C(=O)NCC(=O)O)c(O)c2ccc(Oc3ccccc3)cc12` [RXD]?
**A.** α-subunit monomer abundance (60 kD band) (c-P4H tetramer): increased the α-subunit monomer abundance in all cases; renal fibrosis, collagen staining of UUO kidney cortex and medulla (UUO kidney; Roxadustat 10 mg/kg IP days 0, 2, 4, 6, 8, Day 14): lessened the fibrosis; quantified collagen (blue) staining, UUO kidney cortex and medulla (UUO kidney; pixel by pixel, P<0.0001 UUO vs UUO+RXD in cortex and in medulla): Reduces Fibrosis; quantified collagen staining, control cortex and medulla with and without RXD (UUO kidney; sham control kidneys): no significant difference; secreted collagen (Sircol) (human lung fibroblasts [1]; FIG. 19E, HLF untreated and treated with +MC-EXO and +TGF-β): blocked; collagen secretion (human lung fibroblasts [1]; fibroblasts co-cultured with mast cell exosomes (40 g/ml)): inhibits collagen secretion; collagen secretion (human lung fibroblasts [1]; fibroblasts exposed to exogenous TGF-β1 (10 ng/ml)): inhibits collagen secretion; collagen secretion (human lung fibroblasts [1]; untreated fibroblasts): inhibits collagen secretion; fibroblast migration, accumulation, and foci formation (human lung fibroblasts [2]): prevents fibroblast migration, accumulation, and foci formation; total protein content of fibroblast cell lysates (fibroblast proliferation) (human lung fibroblasts [3]): 0.828 μg/ml/well; SMA abundance [4]: decreased; C-P4H abundance in Western blots (C-P4H; HLF lysates +MC-EXO and +TGFβ, actin loading control): decreased C-P4H abundance; C-P4H immunofluorescence intensity (C-P4H): inhibited the increase in C-P4H fluorescence intensity; C-P4H immunofluorescence intensity (C-P4H; listed as Roxadustat): inhibits the increase in C-P4H; proline hydroxylation in collagens 1 and 3 (HLF; LC-MC analysis of HLF extracted proteins): prevented proline hydroxylation; hydroxyproline in HLFs (HLF; TGF-β-induced increase): inhibited the TGF-β-induced increase in hydroxyproline; severity of fibrosis, Masson's trichrome stained lungs ([5]; RXD 10 mg/kg days 7-19 every other day, sacrifice day 21): lessened the severity of fibrosis; lung hydroxyproline content ([5]; RXD 10 mg/kg days 7-19 every other day, sacrifice day 21, P<0.01 Bleo versus Bleo+RXD): significantly decreased; number of mast cells in vivo in pulmonary fibrosis ([5]; bleo vs bleo+RXD, P<0.05): reduced; lung compliance (pulmonary function tests) ([5]; bleomycin-induced decrease): normalizes the bleomycin-induced decrease in lung compliance; pulmonary fibrosis, Masson's trichrome-stained lungs ([5]; bleomycin-treated mice, 14d time point): reduced; mast cell degranulation (β-hexosaminadase and mast cell tryptase in supernatants) [6]: decreases mast cell degranulation
